Measurements as given in patent US20180292376A1, “DIFFUSION CELL TESTING METHODS CONTAINING BIPHASIC RECEPTOR FLUIDS” (BUFFERAD Illinois Inc. d/b/a Zyleris PharmaTech, Inc., priority 2017, published 2018).

Key:
[1] = In vitro release testing (IVRT), static vertical diffusion cell, synthetic membrane, UV-VIS analysis; type: physicochemical; details: petrolatum ointment with 0.5% loteprednol etabonate and 0.3% tobramycin sulfate; 1-octanol:1-hexanol:water 25:25:50 v:v:v
Description: In Vitro Release Testing Method.
Release of pharmaceutically active compounds from semi-solid dosage forms was evaluated in an in vitro model of static vertical diffusion cell using a synthetic membrane model. […] The samples were analyzed using a UV-VIS spectrometer. […]
Test time points: 0, 2, 4, 6, 8, and 10 hours. Each test was conducted in four replicates (N=4). Square root of test time points: 0, 1.41, 2.00, 2.45, 2.83, and 3.16.
Membrane: Polypropylene (pore size: 0.45 micron).
Static vertical diffusion cell parameters: Area of the membrane diffusion area: 0.95 square centimeters.
Dosing level: infinite dose at about 3.0 milliliter of the semi-solid dosage form.
Static vertical diffusion cell consists of a donor and receptor compartment separated by a synthetic membrane. The dosing compartment was for the dosed semi-solid dosage form. […] Before dosing, the diffusion cell was pre-incubated at 32° C. for about 20 to 45 minutes. The t=0 samples were taken after the incubation period prior to dosing.
During the experiment, the receptor fluid was in intimate contact with the membrane through a mixing mechanism, such as, e.g., magnetic stirring bar, or orbit shaker, and maintained at 32° C. using a heating mechanism, such as, e.g., dry heat block, or circulating water bath. At each time point, entire content of the receptor fluid was collected and replaced with a fresh batch pre-incubated at 32° C.
An ointment dosage form was prepared as an example of the semi-solid dosage form. Petrolatum was heated to about 50 to 70° C. while mixing. Xylene Cyanol was added to the heated petrolatum while heating and mixing. The mixture was mixed until uniform. Then, the mixture was slowly cooled to room temperature while mixing to yield the ointment formulation.

[2] = general statement, no test described; cited from earlier work

| Molecule | phase of the biphasic receptor fluid in which the released compound is solubilized [1] | solubility in water [2] |
| --- | --- | --- |
| CCOC(=O)O[C@]1(C(=O)OCCl)CC[C@H]2[C@@H]3CCC4=CC(=O)C=C[C@]4(C)[C@H]3[C@@H](O)C[C@@]21C [loteprednol etabonate, Loteprednol etabonate] | mostly solubilized in the organic 1-octanol/1-hexanol phase |  |
| Tobramycin sulfate |  | freely soluble |
